Measured values published in PubChem BioAssay (NCI).
Where “and” joins values, the source holds several entries; their conditions need not be identical. Identical values can stand only once.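 These data come from cells grown in 96-well plates and exposed to compound for 48 hours at five concentrations. GI50 marks 50% less growth. TGI is the concentration that stops growth completely.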

Legend:
Assay in all cases: NCI-60 cell line screen, 48 h
OVCAR-5 ovarian = system: OVCAR-5 ovarian
OVCAR-3 ovarian = system: OVCAR-3 ovarian
SW-620 colon = system: SW-620 colon
HOP-62 NSCLC = system: HOP-62 NSCLC
RPMI-8226 leukemia = system: RPMI-8226 leukemia
T-47D breast = system: T-47D breast
SNB-75 CNS = system: SNB-75 CNS
NCI-H460 lung = system: NCI-H460 lung
UACC-62 melanoma = system: UACC-62 melanoma
CAKI-1 renal = system: CAKI-1 renal

Row | SMILES | TGI (OVCAR-5 ovarian) | TGI (OVCAR-3 ovarian) | TGI (SW-620 colon) | TGI (HOP-62 NSCLC) | TGI (RPMI-8226 leukemia) | TGI (T-47D breast) | TGI (SNB-75 CNS) | TGI (NCI-H460 lung) | TGI (UACC-62 melanoma) | TGI (CAKI-1 renal) | GI50 (OVCAR-5 ovarian) | GI50 (OVCAR-3 ovarian) | GI50 (SW-620 colon) | GI50 (HOP-62 NSCLC) | GI50 (RPMI-8226 leukemia) | GI50 (T-47D breast) | GI50 (SNB-75 CNS) | GI50 (NCI-H460 lung) | GI50 (UACC-62 melanoma) | GI50 (CAKI-1 renal)
1 | O=C(NNC(=O)c1ccncc1)C(=O)Nc1cc(Cl)c(Cl)cc1Cl | > 100 µM | > 100 µM | > 100 µM | > 100 µM | > 100 µM | > 100 µM | > 100 µM | > 100 µM | > 100 µM | > 100 µM |  |  |  |  |  |  |  |  |  | 
2 | CSCc1ncc(-c2ccc(C(F)(F)F)cc2)c(NC2CCCCCC2)n1 | > 10 µM | > 10 µM | > 10 µM | > 10 µM | > 10 µM | > 10 µM | > 10 µM | > 10 µM | > 10 µM | > 10 µM | > 10 µM | > 10 µM | > 10 µM | > 10 µM | > 10 µM | > 10 µM | > 10 µM | > 10 µM | > 10 µM | > 10 µM
3 | CSC(=S)NCc1cn(C)c2ccccc12 | > 100 µM | 80.4 µM | > 100 µM | > 100 µM | > 100 µM | > 100 µM | > 100 µM | > 100 µM | 42.7 µM | 61.3 µM | 44.1 µM | 23.4 µM | 30.1 µM | 49.4 µM | 30.7 µM | 29.5 µM | 51.4 µM | 29.4 µM | 20.1 µM | 20.8 µM
4 | COc1ccc2c(c1)[n+](=O)c(/C=C/C(=O)c1cc(OC)c(OC)c(OC)c1)c(C)n2[O-] | > 100 µM | 11.7 µM | 47.6 µM | 47 µM | 15.6 µM | 14.7 µM | 43.1 µM | 45.5 µM | 14.1 µM | > 100 µM | 28.7 µM | 2.04 µM | 4.03 µM | 19.4 µM | 3.05 µM | 2.56 µM | 11.9 µM | 13.3 µM | 2.9 µM | 5.31 µM
5 | C=C(CN1CCc2ccccc2C1)c1ccc(CCCC(=O)Nc2ccccc2N)cc1 | 80.2 µM | 22.2 µM | 32.1 µM | 75.2 µM | 22.2 µM | 59.3 µM | 27.7 µM | > 100 µM | 30.8 µM | 82.5 µM | 26.5 µM | 9.81 µM | 15.6 µM | 22.7 µM | 5.37 µM | 11.2 µM | 3.33 µM | > 100 µM | 15.1 µM | 17.9 µM
6 | CN(CCOc1ccc(NS(C)(=O)=O)cc1)CCc1ccc(NS(C)(=O)=O)cc1 | > 100 µM | > 100 µM | > 100 µM | > 100 µM | > 100 µM | > 100 µM | > 100 µM | > 100 µM | > 100 µM | > 100 µM | > 100 µM | > 100 µM | > 100 µM | > 100 µM | > 100 µM | > 100 µM | > 100 µM | > 100 µM | > 100 µM | > 100 µM
7 | OC(Cc1cccc2ccccc12)CN1CCC(c2ccccc2)CC1 (stereo not drawn) | 27.7 µM | 30.5 µM | 29.9 µM | 30.2 µM | 31.8 µM | 40.6 µM | 25.3 µM | 28.4 µM | 28.9 µM | 24.5 µM |  |  |  |  |  |  |  |  |  | 
8 | C=C(CN1CCN(c2ccccn2)CC1)c1ccc(C(=O)Nc2ccccc2N)cc1 | 26.4 µM | 4.39 µM | > 50 µM | > 50 µM | > 50 µM | 20.9 µM | 4.68 µM | > 50 µM | 9.99 µM | 5.03 µM | 6.1 µM | 1.25 µM | 1.71 µM | 1.32 µM | 1.6 µM | 1.23 µM | 1.48 µM | 2.81 µM | 1.41 µM | 1.19 µM
9 | O=C1C=C(NCCc2ccccc2)c2ccccc2C1=O | 3.39 µM | 5.59 µM | 4.31 µM | 4.89 µM | 67.5 µM | 40.1 µM | 3.14 µM | 3.18 µM | 3.34 µM | 21.8 µM |  |  |  |  |  |  |  |  |  | 
10 | Cc1c(-c2ccc(-c3ccccc3F)cc2)nc2ccc(F)cc2c1C(=O)O | 209 µM and 371 µM | 27.5 µM and 91.6 µM and 139 µM | 139 µM and 577 µM | 35 µM and 199 µM |  | 259 µM and 792 µM | 248 µM and 316 µM | 80.9 µM and 174 µM | 48.4 µM and 164 µM | 105 µM and 109 µM |  | 10.1 µM and 23 µM | 0.488 µM and 1.16 µM | 0.5 µM | 0.811 µM | 10.2 µM and 79.5 µM | 36.7 µM and 81.6 µM | 0.349 µM and 0.5 µM | 0.5 µM | 3.34 µM
11 | COc1ccc2c(CN3CCCC[C@H]3O)cc3cc4c(cc3c2c1)OCO4 | 14.1 µM | 3.4 µM | 4.65 µM | 3.52 µM | 1.32 µM | 5.46 µM | 1.86 µM | 10.4 µM | 0.712 µM | 5.66 µM | 0.489 µM | 0.409 µM | 0.31 µM | 0.541 µM | 0.298 µM | 0.393 µM | 0.5 µM | 0.295 µM | 0.247 µM | 0.518 µM
12 | COC(=O)c1c(C(=O)O)c(-c2ccccc2)c(-c2ccccc2)c(-c2ccccc2)c1-c1ccccc1 | > 100 µM | > 100 µM | > 100 µM | > 100 µM | > 100 µM | > 100 µM | > 100 µM | > 100 µM | > 100 µM | > 100 µM | > 100 µM | > 100 µM | > 100 µM | > 100 µM | 88.8 µM | 75.7 µM | 47.6 µM | > 100 µM | > 100 µM | > 100 µM
13 | COc1ccc(C(=O)c2ccccc2)c(O)c1 | > 100 µM | > 100 µM | > 100 µM | > 100 µM | > 100 µM | > 100 µM | > 100 µM | > 100 µM | > 100 µM | > 100 µM | > 100 µM | > 100 µM | > 100 µM | > 100 µM | 82.2 µM | 10.1 µM | 20.4 µM | 88.4 µM | 57.1 µM | 67.4 µM
14 | Cc1cc(C)c(-c2c(O)c(Br)c(-c3c(C)cc(C)c(Br)c3C)c(O)c2Br)c(C)c1Br | 9.63 µM | 10.8 µM | 12 µM | 10.1 µM | 11.9 µM | 4.84 µM | 10.3 µM | 6.5 µM | 4.04 µM | 5.99 µM | 2.85 µM | 2.33 µM | 2.94 µM | 2.81 µM | 2.08 µM | 1.7 µM | 1.88 µM | 2.16 µM | 1.54 µM | 1.66 µM
15 | CCOC(=O)c1sc(NC(=O)COc2ccc(/C=C3\CCc4cc(OC)ccc4C3=O)cc2)nc1C | 24.6 µM | 25.8 µM | 23.5 µM | 30.6 µM | 6.64 µM | 30.7 µM | 24.3 µM | 28.7 µM | 23.4 µM | 31.6 µM | 8.97 µM | 11 µM | 11.4 µM | 15.2 µM | 0.684 µM | 9.13 µM | 6.73 µM | 14.3 µM | 11.3 µM | 11.1 µM
16 | CC(C)C(Br)C(=O)NCC(=O)O (stereo not drawn) | > 100 µM | > 100 µM | > 100 µM | > 100 µM | > 100 µM | > 100 µM | > 100 µM | > 100 µM | > 100 µM | > 100 µM |  |  |  |  |  |  |  |  |  | 
17 | S=C(Nc1ccc(-c2nc3ccccc3s2)cc1)Nc1ccc(-c2nc3ccccc3s2)cc1 | 48.8 µM | > 100 µM | 67.3 µM | > 100 µM | > 100 µM | > 100 µM | 36.4 µM | 63.9 µM | 32 µM | 48.1 µM | 20.1 µM | 24.5 µM | 23.7 µM | 37.5 µM | 34.6 µM | 18.8 µM | 10.4 µM | 21 µM | 15.7 µM | 13.5 µM
